The source of these data is US9809623B2, “α4β7 peptide monomer and dimer antagonists” (Protagonist Therapeutics, Inc., priority 2014, dated 2017).

Read-outs that look alike come from different tables or passages of the source. Numbered stars: 1 amine (or outer) side, 2 acyl side, 3 side chain; on linkers, the order of the positions; unused ones are H or OH. Bridge positions count the residues as written; N and C are the ends. Square brackets hold non-standard residues; d marks the D form. Peptide text beside a SMILES is read from it. I, II: the chains in the order shown. ξ: configuration not given here. X2 = O=C(CCOCCOCCOCCOCCOCCOCCOCCOCCOCCOCCOCCOCCOCCOCCOCCOCCOCCOCCOCCOCCOCCOCCOCCOCCOCCC(=O)[*:2])[*:1]; Phe(4-tBu) = CC(C)(C)c1ccc(C[C@H](N)C(=O)O)cc1; 1Nal = N[C@@H](Cc1cccc2ccccc12)C(=O)O; 2Nal = N[C@@H](Cc1ccc2ccccc2c1)C(=O)O; Diglycolyl = O=C(COCC(=O)[*:2])[*:1]; NMeR = CN[C@@H](CCCNC(=N)N)C(=O)O; β3hE = N[C@@H](CCC(=O)O)CC(=O)O; Thr(3ξ) = CC(O)[C@H](N)C(=O)O; NMeK = CN[C@@H](CCCCN)C(=O)O; Pen = CC(C)(S)[C@H](N)C(=O)O A value given as a limit tells only on which side of the number the result lay.

Data set [1] concerns the target T1, α4β1 (Homo sapiens, UniProt P05556+P13612, DEL729-798).
T1 construct: purchased R&D Systems 5668-A4
Nature of the data set: α4β1-VCAM Competition ELISA. Type of data set: binding. The method, boiled down: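 Recombinant α4β1 (60 nM final) competed with serially diluted peptides (top final 100 μM) for VCAM-1 Fc coated at 400 ng/well, in Tris pH 7.6 with 1 mM MnCl2 or MgCl2, for 2 h at 37 °C. Bound integrin was detected with anti-CD49d 9F10 plus HRP anti-mouse IgG, using TMB read at 450 nm.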
In general terms: ELISA stands for enzyme-linked immunosorbent assay.

Data set [2] has as its target α4β7 (Homo sapiens, UniProt P13612+P26010). Nature of the data set: α4β7-MAdCAM Cell Adhesion Assay (RPMI 8866 human cells). On the set-up: host or cells: RPMI 8866 human B lymphoblastoid cells. It is filed as cell-based. In outline: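 Washed RPMI 8866 cells (200,000/well) in DMEM with 0.1% BSA, 10 mM HEPES pH 7, 1 mM MnCl2 adhered to rh MAdCAM-1/Fc-coated wells with serially diluted peptides, 30-45 min at 37 °C. After three washes, bound cells quantified by MTT, A570, cell-free background subtracted for dose response.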

The nature of data set [3]: Simulated Intestinal Fluid (SIF) Stability Assay. Type of data set: in vitro ADME, porcine. To be noted: pig, simulated intestinal fluid (SIF) with 1% porcine pancreatin, pH 6.5, Table 4-C, t1/2; > means assay stopped at that time; read-out: SIF (porcine) Min. The method, boiled down:
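Peptides (22 μM final) incubated at 37 °C in FASSIF (pH 6.5) with 1% porcine pancreatin; aliquots quenched at various times and analyzed by LC-MS/MS against internal standard. Half-life from first-order exponential decay fit of percent remaining.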

[4] abbreviates: Table 3-B, Selectivity (α4β1), range classes, read-out: α4β1 ELISA IC50.
The mark [5] stands for this setting: Table 3-B, Potency (α4β7), range classes, read-out: α4β7 cell (Hu) IC50.
Where [6] appears, read: Table 4-B, read-out: ELISA_α4β1 IC50.
The mark [7] stands for this setting: Table 4-B, read-out: Cell Adhesion α4β7 IC50.

α4β7, sequence (P13612 34-1032): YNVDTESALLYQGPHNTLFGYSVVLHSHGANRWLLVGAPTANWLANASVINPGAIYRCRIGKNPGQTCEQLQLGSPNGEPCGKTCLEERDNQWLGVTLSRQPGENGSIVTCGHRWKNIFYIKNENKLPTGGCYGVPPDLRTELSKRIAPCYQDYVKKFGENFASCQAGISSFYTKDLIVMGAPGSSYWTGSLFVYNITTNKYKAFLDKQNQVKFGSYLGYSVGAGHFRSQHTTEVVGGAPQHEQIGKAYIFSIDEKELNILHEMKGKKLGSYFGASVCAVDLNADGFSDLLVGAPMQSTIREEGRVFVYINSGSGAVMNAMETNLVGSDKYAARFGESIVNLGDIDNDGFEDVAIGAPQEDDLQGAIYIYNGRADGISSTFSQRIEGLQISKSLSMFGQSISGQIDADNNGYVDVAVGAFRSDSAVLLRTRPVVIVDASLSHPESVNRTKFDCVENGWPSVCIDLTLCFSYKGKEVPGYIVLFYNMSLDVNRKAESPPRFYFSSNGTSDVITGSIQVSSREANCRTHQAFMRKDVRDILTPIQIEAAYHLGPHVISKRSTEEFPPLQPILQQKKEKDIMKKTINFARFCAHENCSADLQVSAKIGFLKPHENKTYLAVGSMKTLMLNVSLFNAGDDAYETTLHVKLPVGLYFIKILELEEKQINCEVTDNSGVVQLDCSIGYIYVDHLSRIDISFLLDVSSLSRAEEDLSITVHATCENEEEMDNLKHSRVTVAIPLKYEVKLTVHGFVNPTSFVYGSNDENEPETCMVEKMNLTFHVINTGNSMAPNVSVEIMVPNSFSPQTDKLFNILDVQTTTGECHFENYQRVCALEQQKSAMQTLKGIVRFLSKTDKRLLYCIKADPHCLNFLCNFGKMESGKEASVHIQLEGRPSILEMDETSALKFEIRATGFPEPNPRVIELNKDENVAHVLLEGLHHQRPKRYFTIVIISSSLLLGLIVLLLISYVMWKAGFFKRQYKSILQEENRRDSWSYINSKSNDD
α4β7, sequence (P26010 20-798): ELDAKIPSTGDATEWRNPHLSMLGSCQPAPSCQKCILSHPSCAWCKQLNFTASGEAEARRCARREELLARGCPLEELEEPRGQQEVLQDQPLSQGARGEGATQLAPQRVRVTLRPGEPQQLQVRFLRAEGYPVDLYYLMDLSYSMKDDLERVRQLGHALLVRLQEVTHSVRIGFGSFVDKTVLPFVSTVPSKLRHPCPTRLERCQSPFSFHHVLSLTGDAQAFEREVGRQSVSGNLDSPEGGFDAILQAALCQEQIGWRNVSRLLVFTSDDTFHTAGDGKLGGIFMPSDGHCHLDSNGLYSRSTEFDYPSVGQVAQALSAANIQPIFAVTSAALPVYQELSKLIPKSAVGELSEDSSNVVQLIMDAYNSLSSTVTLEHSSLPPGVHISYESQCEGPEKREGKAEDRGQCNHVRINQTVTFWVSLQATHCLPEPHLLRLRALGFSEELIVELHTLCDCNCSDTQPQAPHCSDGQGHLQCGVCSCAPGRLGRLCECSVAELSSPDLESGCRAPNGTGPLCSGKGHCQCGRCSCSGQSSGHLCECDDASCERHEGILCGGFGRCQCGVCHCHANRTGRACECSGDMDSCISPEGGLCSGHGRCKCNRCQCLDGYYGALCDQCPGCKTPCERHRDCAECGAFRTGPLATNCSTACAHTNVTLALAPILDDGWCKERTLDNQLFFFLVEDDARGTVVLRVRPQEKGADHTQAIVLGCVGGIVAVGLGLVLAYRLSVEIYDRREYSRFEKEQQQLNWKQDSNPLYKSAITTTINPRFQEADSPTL
T1 sequence (P13612 34-977 limits assumed, stated change not applied): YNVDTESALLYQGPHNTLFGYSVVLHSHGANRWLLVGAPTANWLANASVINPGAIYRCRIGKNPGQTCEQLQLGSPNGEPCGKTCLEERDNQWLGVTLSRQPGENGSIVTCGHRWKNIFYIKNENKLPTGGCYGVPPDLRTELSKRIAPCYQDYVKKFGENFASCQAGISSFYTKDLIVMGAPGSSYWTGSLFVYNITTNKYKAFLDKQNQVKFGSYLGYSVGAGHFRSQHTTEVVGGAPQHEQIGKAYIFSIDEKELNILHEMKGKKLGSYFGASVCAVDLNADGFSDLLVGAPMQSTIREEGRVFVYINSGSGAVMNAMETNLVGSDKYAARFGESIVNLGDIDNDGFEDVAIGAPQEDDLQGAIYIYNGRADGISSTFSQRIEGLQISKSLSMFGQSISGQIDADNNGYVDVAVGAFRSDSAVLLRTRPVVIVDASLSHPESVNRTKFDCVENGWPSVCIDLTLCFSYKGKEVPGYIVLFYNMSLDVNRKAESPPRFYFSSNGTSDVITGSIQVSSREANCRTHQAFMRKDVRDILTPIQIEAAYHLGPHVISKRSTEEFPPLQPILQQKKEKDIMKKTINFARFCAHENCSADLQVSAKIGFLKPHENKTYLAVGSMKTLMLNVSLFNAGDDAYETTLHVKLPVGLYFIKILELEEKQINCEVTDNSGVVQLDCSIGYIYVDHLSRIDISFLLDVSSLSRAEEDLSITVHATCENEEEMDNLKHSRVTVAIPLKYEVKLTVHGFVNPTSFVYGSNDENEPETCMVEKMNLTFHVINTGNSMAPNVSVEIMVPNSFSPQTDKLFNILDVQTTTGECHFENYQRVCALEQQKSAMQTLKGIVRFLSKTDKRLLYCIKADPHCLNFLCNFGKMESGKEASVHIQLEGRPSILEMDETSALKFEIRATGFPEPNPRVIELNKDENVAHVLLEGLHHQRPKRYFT
T1 sequence (P05556 21-728 limits assumed, stated change not applied): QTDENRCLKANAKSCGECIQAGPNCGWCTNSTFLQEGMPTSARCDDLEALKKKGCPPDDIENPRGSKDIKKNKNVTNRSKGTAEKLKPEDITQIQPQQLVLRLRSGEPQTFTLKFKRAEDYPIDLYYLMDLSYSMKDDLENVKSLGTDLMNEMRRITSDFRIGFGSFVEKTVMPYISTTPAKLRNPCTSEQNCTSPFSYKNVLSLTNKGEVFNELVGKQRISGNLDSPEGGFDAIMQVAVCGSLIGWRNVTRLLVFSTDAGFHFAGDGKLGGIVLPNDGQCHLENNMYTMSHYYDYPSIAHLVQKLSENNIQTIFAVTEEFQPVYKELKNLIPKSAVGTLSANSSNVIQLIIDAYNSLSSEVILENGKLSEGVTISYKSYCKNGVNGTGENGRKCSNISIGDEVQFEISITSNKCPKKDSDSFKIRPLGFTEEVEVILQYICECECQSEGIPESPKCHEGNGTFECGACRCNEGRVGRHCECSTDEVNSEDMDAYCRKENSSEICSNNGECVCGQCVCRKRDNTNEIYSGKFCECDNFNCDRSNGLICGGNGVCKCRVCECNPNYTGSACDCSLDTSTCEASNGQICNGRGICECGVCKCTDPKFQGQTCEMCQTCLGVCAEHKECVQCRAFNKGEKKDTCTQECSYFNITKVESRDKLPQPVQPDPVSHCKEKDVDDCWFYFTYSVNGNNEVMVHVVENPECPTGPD

As to `CC(=O)N[C@@H]1C(=O)N(C)[C@@H](CCCNC(=N)N)C(=O)N[C@@H](CO)C(=O)N[C@@H](CC(=O)O)C(=O)N[C@@H](C(C)O)C(=O)N[C@@H](CC(C)C)C(=O)N[C@H](C(=O)N[C@@H](Cc2ccc(C(C)(C)C)cc2)C(=O)N[C@@H](CCC(=O)O)CC(=O)N[C@H](CCCCNC(=O)COCC(=O)NCCCC[C@@H](NC(=O)C[C@H](CCC(=O)O)NC(=O)[C@H](Cc2ccc(C(C)(C)C)cc2)NC(=O)[C@H]2NC(=O)[C@H](CC(C)C)NC(=O)[C@H](C(C)O)NC(=O)[C@H](CC(=O)O)NC(=O)[C@H](CO)NC(=O)[C@H](CCCNC(=N)N)N(C)C(=O)[C@@H](NC(C)=O)C(C)(C)SSC2(C)C)C(N)=O)C(N)=O)C(C)(C)SSC1(C)C` (stereo partly drawn) [Peptide X, [Ac-Pen-(N-Me-Arg)-Ser-Asp-Thr-Leu-Pen-(Phe(4-tBu))-(β-homoGlu)-(D-Lys)]2-DIG] (I: Ac-[Pen][NMeR]SD[Thr(3ξ)]L[Pen][Phe(4-tBu)][β3hE][dK]-NH2 / II: Ac-[Pen][NMeR]SD[Thr(3ξ)]L[Pen][Phe(4-tBu)][β3hE][dK]-NH2; disulfide I:1-I:7, II:1-II:7; linker I:10-II:10 via Diglycolyl), the concentration for half-maximal inhibition (IC50) (commonly the concentration that inhibits the measured activity by half) in data set [1] (1 mM Mg^2+ binding conditions, read-out: IC50 for α4β1, competition ELISA) is more than 10000 nM; in data set [1] (b977, second statement, conditions not stated, read-out: IC50 for α4β1), more than 100000 nM; in data set [2] (human B cell lymphoblastoid RPMI8866, read-out: IC50 for blocking adhesion of RPMI8866 cell line to MAdCAM-1), 0.72 nM.

As for `CC(=O)N[C@@H]1C(=O)N(C)[C@@H](CCCNC(=N)N)C(=O)N[C@@H](CO)C(=O)N[C@@H](CC(=O)O)C(=O)N[C@@H]([C@@H](C)O)C(=O)N[C@@H](CC(C)C)C(=O)N[C@H](C(=O)N[C@@H](Cc2c[nH]c3ccccc23)C(=O)N[C@@H](CCC(=O)O)C(=O)N[C@H](CCCCNC(=O)COCC(=O)NCCCC[C@@H](NC(=O)[C@H](CCC(=O)O)NC(=O)[C@H](Cc2c[nH]c3ccccc23)NC(=O)[C@H]2NC(=O)[C@H](CC(C)C)NC(=O)[C@H]([C@@H](C)O)NC(=O)[C@H](CC(=O)O)NC(=O)[C@H](CO)NC(=O)[C@H](CCCNC(=N)N)N(C)C(=O)[C@@H](NC(C)=O)C(C)(C)SSC2(C)C)C(=O)O)C(=O)O)C(C)(C)SSC1(C)C` [compound 78] (I: Ac-[Pen][NMeR]SDTL[Pen]WE[dK]-OH / II: Ac-[Pen][NMeR]SDTL[Pen]WE[dK]-OH; disulfide I:1-I:7, II:1-II:7; linker I:10-II:10 via Diglycolyl), the results for the 50% inhibitory concentration (IC50) in data set [1] (setting [4]) and in data set [2] (setting [5]) were 100 to 500 nM and less than 10 nM, respectively.

`CC(=O)N[C@@H]1C(=O)N(C)[C@@H](CCCNC(=N)N)C(=O)N[C@@H](CO)C(=O)N[C@@H](CC(=O)O)C(=O)N[C@@H]([C@@H](C)O)C(=O)N[C@@H](CC(C)C)C(=O)N[C@H](C(=O)N[C@@H](Cc2cccc3ccccc23)C(=O)N[C@@H](CCC(=O)O)CC(=O)N(C)[C@@H](CCCCNC(=O)COCC(=O)NCCCC[C@@H](C(N)=O)N(C)C(=O)C[C@H](CCC(=O)O)NC(=O)[C@H](Cc2cccc3ccccc23)NC(=O)[C@H]2NC(=O)[C@H](CC(C)C)NC(=O)[C@H]([C@@H](C)O)NC(=O)[C@H](CC(=O)O)NC(=O)[C@H](CO)NC(=O)[C@H](CCCNC(=N)N)N(C)C(=O)[C@@H](NC(C)=O)C(C)(C)SSC2(C)C)C(N)=O)C(C)(C)SSC1(C)C` [compound 142] (I: Ac-[Pen][NMeR]SDTL[Pen][1Nal][β3hE][NMeK]-NH2 / II: Ac-[Pen][NMeR]SDTL[Pen][1Nal][β3hE][NMeK]-NH2; disulfide I:1-I:7, II:1-II:7; linker I:10-II:10 via Diglycolyl): the values for the concentration for half-maximal inhibition (IC50) in data set [1] (setting [4]) and in data set [2] (setting [5]) were 500 to 1000 nM and less than 10 nM, respectively.

Take `CC(=O)N[C@H]1CSSC[C@@H](C(=O)NCC(=O)N[C@@H](CCC(=O)O)C(=O)N[C@@H](CCCCNC(=O)CCOCCOCCOCCOCCOCCOCCOCCOCCOCCOCCOCCOCCOCCOCCOCCOCCOCCOCCOCCOCCOCCOCCOCCOCCOCCC(=O)NCCCC[C@H](NC(=O)[C@H](CCC(=O)O)NC(=O)CNC(=O)[C@@H]2CSSC[C@H](NC(C)=O)C(=O)N[C@@H](CCCNC(=N)N)C(=O)N[C@@H](CO)C(=O)N[C@@H](CC(=O)O)C(=O)N[C@@H]([C@@H](C)O)C(=O)N[C@@H](CC(C)C)C(=O)N2)C(N)=O)C(N)=O)NC(=O)[C@H](CC(C)C)NC(=O)[C@H]([C@@H](C)O)NC(=O)[C@H](CC(=O)O)NC(=O)[C@H](CO)NC(=O)[C@H](CCCNC(=N)N)NC1=O` [compound 197, (Ac-C-R-S-D-T-L-C-G-E-K-NH2)2-PEG25] (I: Ac-CRSDTLCGEK-NH2 / II: Ac-CRSDTLCGEK-NH2; disulfide I:1-I:7, II:1-II:7; linker I:10-II:10 via X2): the IC50 came out at 964 nM in data set [1] (setting [6]) and 301 nM in data set [2] (setting [7]).

On to `CC(=O)N[C@H]1CSSC[C@@H](C(=O)NCC(=O)N[C@@H](CCC(=O)O)C(N)=O)NC(=O)[C@H](CC(C)C)NC(=O)[C@H]([C@@H](C)O)NC(=O)[C@H](CC(=O)O)NC(=O)[C@H](CO)NC(=O)[C@H](CCCNC(=N)N)N(C)C1=O` [compound 198, Ac-C-N-Me-R-S-D-T-L-C-G-E-NH2] (Ac-C[NMeR]SDTLCGE-NH2; disulfide 1-7), for which the half-maximal inhibitory concentration (IC50) came out at 1290 nM in data set [1] (setting [6]) and 1120 nM in data set [2] (setting [7]).

As for `CC(=O)N[C@@H]1C(=O)N[C@@H](CCCNC(=N)N)C(=O)N[C@@H](CO)C(=O)N[C@@H](CC(=O)O)C(=O)N[C@@H]([C@@H](C)O)C(=O)N[C@@H](CC(C)C)C(=O)N[C@H](C(=O)N[C@H](CCCCNC(=O)COCC(=O)NCCCC[C@@H](NC(=O)[C@@H]2CSSC(C)(C)[C@H](NC(C)=O)C(=O)N[C@@H](CCCNC(=N)N)C(=O)N[C@@H](CO)C(=O)N[C@@H](CC(=O)O)C(=O)N[C@@H]([C@@H](C)O)C(=O)N[C@@H](CC(C)C)C(=O)N2)C(N)=O)C(N)=O)CSSC1(C)C` [compound 207, (Ac-Pen-R-S-D-T-L-C-k-NH2)2-DIG] (I: Ac-[Pen]RSDTLC[dK]-NH2 / II: Ac-[Pen]RSDTLC[dK]-NH2; disulfide I:1-I:7, II:1-II:7 (inferred); linker I:8-II:8 via Diglycolyl (inferred)), in data set [3], the half-life at 22 μM is less than 0.333 h. Further, the half-inhibitory concentration (IC50) in data set [2] (setting [7]) was 49 nM.

As for `CC(=O)N[C@@H]1C(=O)N(C)[C@@H](CCCNC(=N)N)C(=O)N[C@@H](CO)C(=O)N[C@@H](CC(=O)O)C(=O)N[C@@H]([C@@H](C)O)C(=O)N[C@@H](CC(C)C)C(=O)N[C@H](C(=O)N[C@@H](Cc2c[nH]c3ccccc23)C(=O)N[C@H](CCCCN)C(N)=O)C(C)(C)SSC1(C)C` [compound 208, Ac-Pen-N-Me-R-S-D-T-L-Pen-W-k-NH2] (Ac-[Pen][NMeR]SDTL[Pen]W[dK]-NH2; disulfide 1-7), in data set [3], the half-life at 22 μM is more than 6 h. In data set [2] (setting [7]), the IC50 was 412 nM.

On to `CC(=O)N[C@@H]1C(=O)N(C)[C@@H](CCCNC(=N)N)C(=O)N[C@@H](CO)C(=O)N[C@@H](CC(=O)O)C(=O)N[C@@H]([C@@H](C)O)C(=O)N[C@@H](CC(C)C)C(=O)N[C@H](C(=O)N[C@@H](Cc2ccc3ccccc3c2)C(=O)N[C@@H](CCC(=O)O)C(=O)N[C@H](CCCCN)C(N)=O)C(C)(C)SSC1(C)C` [compound 210, Ac-Pen-N-Me-R-S-D-T-L-Pen-2-Nal-E-k-NH2] (Ac-[Pen][NMeR]SDTL[Pen][2Nal]E[dK]-NH2; disulfide 1-7), for which, in data set [1] (setting [6]), the IC50 stood at 200 nM. Further, the half-life at 22 μM in data set [3] is more than 5 h.
